This assay deals with 883617-216-R-J1-PDC complex spheroid viability. The assay is described as follows: Anticancer human tumor 883617-216-R-J1-PDC patient-derived bladder carcinoma cell line growth inhibition [POLQ]. As to conditions: for viability, T/C: stronger effect = lower value. Summed up:
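PDC + HUVEC + MSC complex spheroids; POLQ inhibitors ± partner drugs; top conc. at/near clinical Cmax, else 10 microM (SN-38 1 microM), half-log dilutions; 37 degrees C, 5% CO2.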

The mark [1] stands for this setting: compound alone, run of 01/08/2024.

Where “and” joins values, the source holds several entries; their conditions need not be identical. Equal values may be shown once.
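Further: spheroids exposed to compounds for seven days before readout.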
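Wherever viability, T/C is given: 100% = DMSO vehicle control viability.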

In the case of `COC1C(OC(N)=O)C(O)C(Oc2ccc3c(O)c(NC(=O)c4ccc(O)c(CC=C(C)C)c4)c(=O)oc3c2C)OC1(C)C` (configuration not stated), the viability, T/C was 98.8% [middle of 13 runs] (compound 0.0316 µM), 99.7% [middle of 13 runs] (compound 0.1 µM), 103% [middle of 13 runs] (compound 1 µM) and 100% [middle of 12 runs] (compound 3.16 µM). Besides, the IC50 under setting [1] was over 10000 nM.

`CCCS(=O)(=O)Nc1ccc(F)c(C(=O)c2c[nH]c3ncc(-c4ccc(Cl)cc4)cc23)c1F`: the viability, T/C reads like this: (compound 0.0316 µM) 107% and 115% and 95.1%; (compound 0.1 µM) 95.8% (2×) and 89.8%; (compound 0.316 µM) 102% and 90.4% and 116%; (compound 1 µM) 105% and 107% and 95.2%; (compound 3.16 µM) 79.3% and 101% and 95.3%; (compound 10 µM) 49.6% and 44.3% and 34.8%. Further, the concentration for half-maximal inhibition (IC50) (curve of compound) was 9880 nM and 8910 nM and 7500 nM.

Take `Cn1ncnc1[C@H]1c2n[nH]c(=O)c3cc(F)cc(c23)N[C@@H]1c1ccc(F)cc1`: the viability, T/C (compound 0.000316 µM) was 94.7% and 100% and 90.6%; the viability, T/C (compound 0.001 µM) was 85.8% and 100% and 85.9%; the viability, T/C (compound 0.00316 µM) was 87.6% and 95.6% and 95.1%; the viability, T/C (compound 0.01 µM) is 83.5% and 90% and 77.4%; the viability, T/C (compound 0.0316 µM) is 70% and 80.9% and 83.5%; the viability, T/C (compound 0.1 µM) is 65.7% and 71.8% and 69.7%. In addition, where the note is “curve of compound”, the IC50 was over 100 nM.

On to `CC[C@@]1(O)C(=O)OCc2c1cc1n(c2=O)Cc2cc3c(CN(C)C)c(O)ccc3nc2-1`, for which the viability, T/C is 97.3% and 105% and 101% (compound 0.000316 µM); 92.3% and 95.7% and 97% (compound 0.001 µM); 104% and 94.3% and 91.6% (compound 0.00316 µM); 83.4% and 88.9% and 88.8% (compound 0.01 µM); 65.8% and 77.7% and 65.3% (compound 0.0316 µM); 53.6% and 63.2% and 48.6% (compound 0.1 µM). Besides, the IC50 (curve of compound) was > 100 nM and 89.8 nM.

As to `Cc1cccc(N(C)C(=O)C2C(O)CCN2c2nc(C)cc(C(F)(F)F)c2C#N)c1` (configuration not stated), the viability, T/C (compound 0.0316 µM) was 102% [middle of 13 runs]; the viability, T/C (compound 0.316 µM) was 99.2% [middle of 13 runs]; the viability, T/C (compound 1 µM) was 100% [middle of 13 runs]; the viability, T/C (compound 3.16 µM) was 101% [middle of 13 runs]; the viability, T/C (compound 10 µM) is 105% [middle of 13 runs]. In addition, the 50% inhibitory concentration (IC50) under setting [1] was over 10000 nM and the half-inhibitory concentration (IC50) (compound alone, run of 01/19/2024) is over 10000 nM.

With `CNCc1ccc(-c2[nH]c3cc(F)cc4c3c2CCNC4=O)cc1`, the viability, T/C is, setting by setting: (compound 0.0316 µM) 92.6% and 94.5% and 97.7%; (compound 0.1 µM) 92% and 95.6% and 100%; (compound 0.316 µM) 96.7% and 92.8% and 89.4%; (compound 1 µM) 96.9% and 93.2% and 104%; (compound 3.16 µM) 95.2% and 98.2% and 99.7%; (compound 10 µM) 77.3% and 88.2% and 74.5%. For the same molecule, the concentration for half-maximal inhibition (IC50) (curve of compound) is over 10000 nM.

As to `CCc1c2c(nc3ccc(O)cc13)-c1cc3c(c(=O)n1C2)COC(=O)[C@]3(O)CC` + Nc1ccc(C#CCN(C(=O)Cc2ncc(C(F)(F)F)cc2C(F)(F)F)c2ccc(F)cc2)nn1, the IC50 (curve of first compound, second compound 0.0316 µM) turned out to be 107 nM; the half-maximal inhibitory concentration (IC50) (curve of first compound, second compound 0.1 µM) is 169 nM; the IC50 (curve of first compound, second compound 0.316 µM) came to 177 nM; the half-inhibitory concentration (IC50) (curve of first compound, second compound 1 µM) turned out to be 90.8 nM; the IC50 (curve of first compound, second compound 3.16 µM) amounted to 168 nM; the IC50 (curve of first compound, second compound 10 µM) came out at 278 nM. In addition, the viability, T/C is 77.5% (second compound 0.0316 µM, first compound 0.00316 µM); 71% (second compound 0.0316 µM, first compound 0.01 µM); 59.1% (second compound 0.0316 µM, first compound 0.0316 µM); 51.3% (second compound 0.0316 µM, first compound 0.1 µM); 40% (second compound 0.0316 µM, first compound 0.316 µM); 27.1% (second compound 0.0316 µM, first compound 1 µM). Also, the viability, T/C was 92.6% (second compound 0.1 µM, first compound 0.00316 µM); 68.3% (second compound 0.1 µM, first compound 0.01 µM); 70.8% (second compound 0.1 µM, first compound 0.0316 µM); 62.3% (second compound 0.1 µM, first compound 0.1 µM); 39.5% (second compound 0.1 µM, first compound 0.316 µM); 27.9% (second compound 0.1 µM, first compound 1 µM). Further, the viability, T/C is, setting by setting: (second compound 0.316 µM, first compound 0.00316 µM) 77.5%; (second compound 0.316 µM, first compound 0.01 µM) 76%; (second compound 0.316 µM, first compound 0.0316 µM) 72.6%; (second compound 0.316 µM, first compound 0.1 µM) 51%; (second compound 0.316 µM, first compound 0.316 µM) 46.6%; (second compound 0.316 µM, first compound 1 µM) 26.8%. Further, the viability, T/C reads like this: (second compound 1 µM, first compound 0.00316 µM) 86.4%; (second compound 1 µM, first compound 0.01 µM) 82.6%; (second compound 1 µM, first compound 0.0316 µM) 59.3%; (second compound 1 µM, first compound 0.1 µM) 50.1%; (second compound 1 µM, first compound 0.316 µM) 40.1%; (second compound 1 µM, first compound 1 µM) 31.4%. For the same molecule, the viability, T/C runs as follows: (second compound 3.16 µM, first compound 0.00316 µM) 94.8%; (second compound 3.16 µM, first compound 0.01 µM) 84.2%; (second compound 3.16 µM, first compound 0.0316 µM) 71.1%; (second compound 3.16 µM, first compound 0.1 µM) 52.3%; (second compound 3.16 µM, first compound 0.316 µM) 45.9%; (second compound 3.16 µM, first compound 1 µM) 27.4%. Moreover, the viability, T/C was 93.6% (second compound 10 µM, first compound 0.00316 µM); 89.1% (second compound 10 µM, first compound 0.01 µM); 78.9% (second compound 10 µM, first compound 0.0316 µM); 59.8% (second compound 10 µM, first compound 0.1 µM); 51.4% (second compound 10 µM, first compound 0.316 µM); 34.1% (second compound 10 µM, first compound 1 µM).

A word on the viability, T/C: it is the ratio of treated to control. The IC50 is the concentration needed to halve the response being measured.

(Values after PubChem BioAssay AID1963833 (Molecular Pharmacology Branch, DTP, NCI, 2024).)
